# Assay results reported in PMC9503459, “Antifungal Activity, Structural Stability, and Immunomodulatory Effects on Human Immune Cells of Defensin from the Lentil Lens culinaris” (Membranes, 2022).
# No end group written: not given here.
# Tested on: CD4+ T-helper cells
# Experiment: Cytokine response by multiplex xMAP, CD4+ T-helper cells
# Format: cell-based, human
# Conditions: 2 µM, 24 h
# Protocol: Colorectal adenocarcinoma Caco-2 cell line (ATCC HTB-37) was cultured in complete DMEM/F12 (1:1) medium containing 10% fetal bovine serum (FBS, Gibco) and 1X antibiotic-antimycotic solution (1XAAS, Invitrogen, Waltham, MA, USA). The acute monocytic leukemia THP-1 line (ATCC TIB-202) was cultured in complete RPMI-1640 medium, containing 10% FBS, 1XAAS, and […]. THP-1 cells were differentiated into pro-inflammatory macrophages (Mφ1) with phorbol 12-myristate 13-acetate (Sigma-Aldrich) for 24 h and subsequently polarized with lipopolysaccharide from E. coli (Sigma-Aldrich) and rhIFN-γ (Sigma-Aldrich) for another 48 h according to previously reported protocol. All cells were cultured in a humidified CO2 incubator (5% CO2, 37 °C). Primary peripheral blood mononuclear cells (PBMCs) collected from a healthy donor were purchased from American Type Culture Collection (ATCC PCS-800-011). CD4^+ T-helper and CD8^+ T cytotoxic cells were isolated from PBMCs by magnetic separation with mouse anti-human CD4-PE (clone 13B8.2, Beckman Coulter Diagnostics, Pasadena, CA, USA) and CD8-PE (clone REA734, Miltenyi Biotec, Bergisch Gladbach, Germany), Anti-PE MicroBeads (Miltenyi Biotec), and LS Separation Columns (Miltenyi Biotec). Isolated CD4^+ and CD8^+ cells were expanded separately with Dynabeads™ Human T-Expander CD3/CD28 (Gibco, Waltham, MA, USA) in RPMI-1640 supplemented with 10% FBS, 1XAAS and 100 U/mL rh-IL-2 (Gibco). Regulatory CD4^+ FoxP3^+ T cells (Tregs) were isolated from PBMCs by magnetic separation with CD4^+CD25^+ Regulatory T Cell Isolation Kit, human (Miltenyi Biotec). Primary CD14^+ blood monocytes were isolated from PBMCs by adherence according to standard technique. Monocyte-derived mature dendritic cells (moDCs) were obtained from CD14^+ blood monocytes according to the previously reported protocol. Briefly, blood monocytes were incubated in complete RPMI-1640 medium, containing 10% FBS, 1XAAS, 800 U/mL rhGM-CSF (Sci-Store, Russia, Moscow) and 500 U/mL rhIL-4 (Sci-Store) for 3 days. Fresh complete RPMI-1640 medium with rhGM-CSF and rhIL-4 was added to the culture on day 3. On day 5, fresh complete RPMI-1640 containing 100 U/mL rhTNF-α (Sigma) as well as 800 U/mL rhGM-CSF and 500 U/mL rhIL-4 was added and the culture was incubated for another 4 days until full maturation.
# Caco-2 cells were seeded into the wells of a 48-well plate, coated with 0.1% bovine collagen (Sigma-Aldrich) for 24 h, 3 weeks before the experiment with complete DMEM/F12 (1:1) medium renewal every 2–3 days. Monocytes, moDCs, CD4^+ T-helper and CD8^+ T cytotoxic cells, Mφ1, and Regulatory CD4^+ FoxP3^+ T cells were seeded into the wells of 48-well plates in the complete RPMI-1640 medium supplemented with 10% Human AB serum (HABS, Capricorn Scientific, Ebsdorfergrund, Germany) and 1XAAS 24 h prior to the experiment; medium in Caco-2-containing wells was also replaced with the same medium. After 24 h, half of the medium in each well was replaced by fresh complete RPMI-1640 medium with 10% HABS, supplemented with 4 µM of Lc-def for the sample wells or fresh medium alone for the control wells. Cell cultures were kept in CO2-incubator (5% CO2, 37 °C) for another 24 h. Culture supernatants were collected 24 h later and stored at −70 °C degrees less than one month prior to the analytes assessment. […]
substance,measurement,value
"Lc-def: defensin from lentil Lens culinaris seeds (UniProt:B3F051), recombinant, overexpressed in Escherichia coli (KTCENLSDSFKGPCIPDGNCNKHCKEKEHLLSGRCRDDFRCWCTRNC; disulfide (positions not given here); ends not checked; also: disulfide bonds present, pairing not given here; UniProt B3F051 28-74, looked up)",EGF,<1.95↓ pg/ml
same,Eotaxin,<3.23↓ pg/ml
same,FGF-2,0 pg/mL
same,FLT-3L,<0.45↓ pg/ml
same,Fractalkine,<23.19↓ pg/ml
same,G-CSF,<2.57↓ pg/ml
same,GM-CSF,<1.36↓ pg/ml
same,GROa,<0.67↓ pg/ml
same,IFNa2,<4.43↓ pg/ml
same,IFNg,<1.99↓ pg/ml
same,IL-1RA,<0.83↓ pg/ml
same,IL-1a,8.24 pg/mL
same,IL-1b,<18.72↓ pg/ml
same,IL-2,<0.31↓ pg/ml
same,IL-3,<0.48↓ pg/ml
same,IL-4,<0.31↓ pg/ml
same,IL-5,0.97 pg/mL
same,IL-6,<0.30↓ pg/ml
same,IL-7,<0.33↓ pg/ml
same,IL-8,<0.49↓ pg/ml
same,IL-9,<1.05↓ pg/ml
same,IL-10,<0.68↓ pg/ml
same,IL-12 (p40),<3.02↓ pg/ml
same,IL-12 (p70),<1.48↓ pg/ml
same,IL-13,<5.00↓ pg/ml
same,IL-15,<1.45↓ pg/ml
same,IL-17A,<1.55↓ pg/ml
same,IL-17E/IL-25,<20.59↓ pg/ml
same,IL-17F,<16.96↓ pg/ml
same,IL-18,<0.35↓ pg/ml
same,IL-22,<8.31↓ pg/ml
same,IL-27,<8.55↓ pg/ml
same,IP-10,<1.56↓ pg/ml
same,M-GSF,<23.75↓ pg/ml
same,MCP-1,<1.52↓ pg/ml
same,MCP-3,<3.95↓ pg/ml
same,MDC,<0.35↓ pg/ml
same,MIG,<3.43↓ pg/ml
same,MIP-1a,7.47 pg/mL
same,MIP-1b,3.99 pg/mL
same,PDGF-AA,<7.38↓ pg/ml
same,PDGF-AB/BB,<9.75↓ pg/ml
same,RANTES,236.88 pg/mL
same,TGF-a,<0.66↓ pg/ml
same,TNFa,<3.91↓ pg/ml
same,TNFb,<0.73↓ pg/ml
same,VEGFa,<1.27↓ pg/ml
same,effects on cytokine production,No effects
same,sCD40L,<6.66↓ pg/ml
